Measurements: BindingDB's records for doi:10.7270/Q2SJ1J25 (Burnham Center For Chemical Genomics, 2010)

Each molecule was assayed against Alkaline phosphatase, placental type (Homo sapiens, UniProt P05187) (assay: activation of placental alkaline phosphatase – biochemical, uHTS hits, mouse IAP activator project, dose response (AID 488878)).
Sequence of Alkaline phosphatase, placental type (P05187 whole entry, looked up): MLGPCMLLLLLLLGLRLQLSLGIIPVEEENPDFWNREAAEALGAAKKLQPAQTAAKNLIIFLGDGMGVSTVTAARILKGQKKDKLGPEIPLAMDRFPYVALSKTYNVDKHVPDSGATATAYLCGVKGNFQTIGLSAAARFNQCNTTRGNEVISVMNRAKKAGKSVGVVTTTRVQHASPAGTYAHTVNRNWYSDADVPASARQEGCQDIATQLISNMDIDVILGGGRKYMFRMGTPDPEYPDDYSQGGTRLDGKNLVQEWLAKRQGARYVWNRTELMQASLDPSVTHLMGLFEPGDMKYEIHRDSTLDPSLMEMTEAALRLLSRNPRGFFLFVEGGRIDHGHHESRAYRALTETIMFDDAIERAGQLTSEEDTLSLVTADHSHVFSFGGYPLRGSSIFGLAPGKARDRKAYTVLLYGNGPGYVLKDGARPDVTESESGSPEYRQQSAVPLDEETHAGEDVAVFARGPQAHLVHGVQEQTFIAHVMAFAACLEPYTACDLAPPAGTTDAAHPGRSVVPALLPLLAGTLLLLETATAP
`CN(CCO)c1ccc(CN=Nc2ccc([N+](=O)[O-])cc2S(=O)(=O)Nc2ccccc2C(=O)O)cc1` was tested, and the EC50 was 26 µM. For `O=C(NN=CC1=CC(=O)C(=O)CC1)NN=CC1=CC(=O)C(=O)CC1` [1,3-bis[[(Z)-(3-hydroxy-4-oxocyclohexa-2,5-dien-1-ylidene)methyl]amino]urea], the EC50 was 29.6 µM. For `O=C1CC(=O)c2c(O)cc(O)c(O)c2C1=O` [4,5,7,8-tetrahydroxy-1,2-naphthoquinone], the EC50 was > 100 µM. Molecule `O=c1ccc2cc3c([nH]c4ccc(Br)cc43)oc-2c1O` [9-bromo-4-hydroxy-6H-[1]benzopyrano[2,3-b]indol-3-one] has an EC50 of 24.1 µM. For `Oc1ccc(CN=Nc2cc(N3CCCC3)nc(N3CCCC3)n2)cc1O` [(4Z)-4-[[2-(2,6-dipyrrolidin-1-ylpyrimidin-4-yl)hydrazinyl]methylidene]-2-hydroxycyclohexa-2,5-dien-1-one], the EC50 was > 100 µM. In the case of `C#CCOCCOCCOCCNc1nc(N2CCN(C(=O)CCCCCCCCCCNC(=O)Cn3cc(CCCCCN)nn3)CC2)nc(N2CCN(C(=O)CCCCCCCCCCNC(=O)Cn3cc(C[C@@H](C)O)nn3)CC2)n1` [KG-TG], the EC50 is reported as > 100 µM. `C#CCOCCOCCOCCNc1nc(N2CCN(C(=O)CCCCCCCCCCNC(=O)[C@@H](CCC(=O)O)n3cc(CCCCCN)nn3)CC2)nc(N2CCN(C(=O)CCCCCCCCCCNC(=O)[C@H]([C@@H](C)CC)n3cc(CCCCCN)nn3)CC2)n1` [KI-KE] was tested, and the EC50 was > 100 µM. In the case of `Nc1c(/C=C2/C=CC(=O)C(O)=C2)c(=O)nc2sc(CC(=O)N3CCCCC3)nn12` [MLS001139223], the EC50 is reported as 23.5 µM. In the case of `Nc1c(/C=C2/C=CC(=O)C(O)=C2)c(=O)nc2sc(CC(=O)N3CCCC3)nn12` [MLS001139292], the EC50 is reported as 9.83 µM. Molecule `Cc1cc(=O)[nH]c(N=NCc2ccc(O)c(O)c2)n1` [MLS001194906] has an EC50 of 65.7 µM. `CS(=O)(=O)c1ccc2c(c1)sc1nc(=O)c(/C=C3/C=CC(=O)C(O)=C3)c(N)n12` [SMR000415838] was tested, and the EC50 was 83.5 µM. `O=C1C=CC(/C=C/c2nc(O)c([N+](=O)[O-])c(=O)[nH]2)C=C1O` (stereo not drawn) [SMR000524347] was tested, and the EC50 was > 100 µM. `C[C@@H]1O[C@@H](O[C@H]2[C@H](O)[C@@H](O)[C@H](Oc3c(-c4ccc(O)c(O)c4)oc4cc(O)cc(=O)c-4c3O)O[C@@H]2CO)[C@H](O)[C@H](O)[C@H]1O` [quercetin-3-rham(4)-gluc] showed an EC50 of 22.6 µM.
